Drawing on patent US20190292155A1, “THERAPEUTIC INHIBITORY COMPOUNDS” (LifeSci Pharmaceuticals, Inc., priority 2016, published 2019), this text covers IC50 for 12 compounds.

T1 sequence (P00746 26-253): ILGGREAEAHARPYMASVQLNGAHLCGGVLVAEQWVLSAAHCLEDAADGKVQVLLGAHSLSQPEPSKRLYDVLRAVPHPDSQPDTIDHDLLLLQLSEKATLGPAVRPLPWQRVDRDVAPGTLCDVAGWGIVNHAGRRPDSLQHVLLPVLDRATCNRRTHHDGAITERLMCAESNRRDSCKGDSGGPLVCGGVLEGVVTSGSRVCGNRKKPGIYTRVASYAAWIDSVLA

The first experiment addresses T1, human complement factor D (Homo sapiens, UniProt P00746).
T1 construct: purchased R&D Systems 1824-SE
Put plainly: In vitro enzyme inhibition of human complement factor D (Z-Lys-SBzl/DTNB, A405).
Details: not given
The format is biochemical. The method, boiled down: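 Buffer 50 mM Tris/HCl pH 7.5, 1 M NaCl, 0.5% final DMSO; compounds pre-incubated with enzyme 5 min at room temperature, then Z-Lys-SBzl with DTNB added (each diluted to 200 μM before addition).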
Broadly, the IC50 is the concentration that gives 50% inhibition. In turn, `N#Cc1ccc2c(C(N)=O)nn(CC(=O)N(CC(=O)NCc3cccc(Cl)c3F)C3CC3)c2c1` [Example 86, 1-(2-((2-((3-chloro-2-fluorobenzyl)amino)-2-oxoethyl)(cyclopropyl)amino)-2-oxoethyl)-6-cyano-1H-indazole-3-carboxamide] gave an IC50 of 100 to 1000 nM.
`CC(CCO)N(CC(=O)NCc1cccc(Cl)c1F)C(=O)Cn1nc(C(N)=O)c2ccccc21` (stereo not drawn) [Example 57, 1-(2-((2-((3-chloro-2-fluorobenzyl)amino)-2-oxoethyl)(4-hydroxybutan-2-yl)amino)-2-oxoethyl)-1H-indazole-3-carboxamide] gave an IC50 of 100 to 1000 nM.

Still in this experiment, the particulars now being: biochemical assay, substrate Z-Lys-SBzl; read-out: CFD IC50.
Consider `NC(=O)c1nn(CC(=O)N(CC(=O)NCc2cccc(Cl)c2F)Cc2ccncc2)c2ccccc12` [Example 32, 1-(2-((2-((3-chloro-2-fluorobenzyl)amino)-2-oxoethyl)(pyridin-4-ylmethyl)amino)-2-oxoethyl)-1H-indazole-3-carboxamide], for which the IC50 fell in the range of 1000 to 10000 nM.
On the same count and under the same terms, the value for `CCOC(=O)CC(N(CC(=O)NCc1cccc(Cl)c1F)C(=O)Cn1nc(C(N)=O)c2ccccc21)C(F)(F)F` (stereo not drawn) [Example 77, ethyl 3-(2-(3-carbamoyl-1H-indazol-1-yl)-N-(2-((3-chloro-2-fluorobenzyl)amino)-2-oxoethyl)acetamido)-4,4,4-trifluorobutanoate] was 1000 to 10000 nM; that for `O=C(CN(C(=O)Cn1nc(-c2ncc[nH]2)c2ccccc21)C1CC1)NCc1cccc(Cl)c1F` [Example 98, 2-(3-(1H-imidazol-2-yl)-1H-indazol-1-yl)-N-(2-((3-chloro-2-fluorobenzyl)amino)-2-oxoethyl)-N-cyclopropylacetamide] was 1000 to 10000 nM; that for `Cc1c(Cl)cccc1CNC(=O)CN(C(=O)Cn1nc(C(N)=O)c2ccccc21)C1CC1` [Example 134, 1-(2-((2-((3-chloro-2-methylbenzyl)amino)-2-oxoethyl)(cyclopropyl)amino)-2-oxoethyl)-1H-indazole-3-carboxamide] was 1000 to 10000 nM.
With `NC(=O)c1nn(CC(=O)N(CC(=O)NCc2cc(Cl)cc(C(F)(F)F)c2)C2CC2)c2ccccc12` [Example 124, 1-(2-((2-((3-chloro-5-(trifluoromethyl)benzyl)amino)-2-oxoethyl)(cyclopropyl)amino)-2-oxoethyl)-1H-indazole-3-carboxamide], the IC50 was in the range of 1000 to 10000 nM.
Same read-out and setting: the figure for `CC(CF)N(CC(=O)NCc1cccc(Cl)c1F)C(=O)Cn1nc(C(N)=O)c2ccccc21` (stereo not drawn) [Example 66, 1-(2-((2-((3-chloro-2-fluorobenzyl)amino)-2-oxoethyl)(1-fluoropropan-2-yl)amino)-2-oxoethyl)-1H-indazole-3-carboxamide] is 100 to 1000 nM; for `NC(=O)c1nn(CC(=O)N(CC(=O)NCc2cccc(Cl)c2F)Cc2cccnc2)c2ccccc12` [Example 35, 1-(2-((2-((3-chloro-2-fluorobenzyl)amino)-2-oxoethyl)(pyridin-3-ylmethyl)amino)-2-oxoethyl)-1H-indazole-3-carboxamide] it is 1000 to 10000 nM; for `CNCCN(CC(=O)Nc1cccc(Cl)n1)C(=O)Cn1nc(C(N)=O)c2ccccc21` [Example 23, 1-(2-((2-((6-chloropyridin-2-yl)amino)-2-oxoethyl)(2-(methylamino)ethyl)amino)-2-oxoethyl)-1H-indazole-3-carboxamide] it is 1000 to 10000 nM.
Same read-out and setting: the value for `NC(=O)c1nn(CC(=O)N(CC(=O)NCc2cccc(Cl)c2F)Cc2ccsc2)c2ccccc12` [Example 27, 1-(2-((2-((3-chloro-2-fluorobenzyl)amino)-2-oxoethyl)(thiophen-3-ylmethyl)amino)-2-oxoethyl)-1H-indazole-3-carboxamide] was 1000 to 10000 nM; that for `NC(=O)c1nn(CC(=O)N(CC(=O)NCc2cc(Cl)cc(Cl)c2)C2CC2)c2ccccc12` [Example 119, 1-(2-(cyclopropyl(2-((3,5-dichlorobenzyl)amino)-2-oxoethyl)amino)-2-oxoethyl)-1H-indazole-3-carboxamide] was 100 to 1000 nM.
